Data published in PMC10333884, “Large‐scale phosphomimetic screening identifies phospho‐modulated motif‐based protein interactions” (Molecular Systems Biology, 2023).
“And” between values parts separate entries of the source, which are not always exact repeats. Identical values can stand only once. Each block holds one compound with its values, some of them ahead of it. Non-standard residues stand in square brackets, D forms with d. Residues, ends and D or L forms follow the SMILES beside them. pS = N[C@@H](COP(=O)(O)O)C(=O)O

Columns and labels:
Assay type in all cases: binding
[1] = molecular target: T1, 14-3-3 theta (Homo sapiens, UniProt P27348); test: FP displacement assay, 14-3-3 theta; conditions: probe FITC-2BTP; technical triplicates
T1 construct: GST (cleaved yes); made in house; host or cells: Escherichia coli BL21-Gold(DE3)
T1 sequence (P27348 1-245): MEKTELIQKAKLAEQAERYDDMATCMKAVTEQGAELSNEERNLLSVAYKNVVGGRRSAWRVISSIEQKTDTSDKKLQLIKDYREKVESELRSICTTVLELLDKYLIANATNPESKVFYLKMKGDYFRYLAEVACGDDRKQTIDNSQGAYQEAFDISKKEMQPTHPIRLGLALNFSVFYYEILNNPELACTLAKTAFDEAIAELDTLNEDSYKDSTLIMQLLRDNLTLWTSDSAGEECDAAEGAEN
Method: (§1) FP experiments were performed as described previously (Kliche et al, [2021]). Shortly, in order to monitor the binding event, FITC‐labelled peptides were used (excitation 495 nm, emission: 535 nm) and the FP signal was recorded in mP on a SpectraMax iD5 Multi‐Mode Microplate Reader (Molecular Devices) by measuring the emitted light in two angels. The measurements were performed at room temperature and prepared in nonbinding black half area 96‐well microplates (Corning®; 50 μl/well). For measuring direct binding, that is saturation curves, a 1:1 dilution series of protein domain (25 μl/well) was generated in 50 mM sodium phosphate buffer pH 7.4 and the measurement performed with 5 nM FITC‐labelled peptide (25 μl/well). The buffer‐corrected values were subsequently plotted with PRISM and fitted to the quadratic equation (Gianni et al, [2005]).
(§2) The 1:1 dilution series in this experiment was performed with the unlabelled peptide in 50 mM sodium phosphate buffer pH 7.4, so that each well‐contained unlabelled peptide (25 μl) at a certain concentration and pre‐formed complex (25 μl). The KD values of this indirectly monitored binding event were calculated as described previously (Nikolovska‐Coleska et al, [2004]). All measurements were at least in technical triplicates as well as biological duplicates when indicated. An amplitude shift between repeat measurements in the displacement experiments was occasionally observed due to variations in the protein preparations. If that was the case, the “active” protein concentration was back‐calculated according to the quadratic equation from the saturation curves performed in parallel. By comparing the active protein concentrations in the complex between different protein preparations, the amplitude was normalised.

[2] = molecular target: T2, Clathrin NTD (Homo sapiens, UniProt Q00610); test: FP displacement assay, clathrin NTD
T2 construct: GST (cleaved yes); made in house; host or cells: Escherichia coli BL21-Gold(DE3)
T2 sequence (Q00610 1-364): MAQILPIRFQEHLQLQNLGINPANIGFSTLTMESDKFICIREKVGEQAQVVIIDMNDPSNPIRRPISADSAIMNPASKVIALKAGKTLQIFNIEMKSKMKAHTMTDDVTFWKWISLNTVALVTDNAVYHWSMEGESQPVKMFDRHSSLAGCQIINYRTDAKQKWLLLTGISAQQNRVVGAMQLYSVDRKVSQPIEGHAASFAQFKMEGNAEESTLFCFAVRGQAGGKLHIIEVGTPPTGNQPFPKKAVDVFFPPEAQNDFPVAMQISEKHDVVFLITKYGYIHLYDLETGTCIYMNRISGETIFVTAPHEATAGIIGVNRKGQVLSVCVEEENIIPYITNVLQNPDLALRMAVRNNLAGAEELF
Method: as §1, §2

[3] = molecular target: T2, Clathrin NTD; test: ITC, clathrin NTD; conditions: ITC (iTC200), 50 mM sodium phosphate pH 7.4, 1 mM DTT; average of the runs, at least technical triplicates
[4] = molecular target: T3, AP2 μ2 (Homo sapiens, UniProt Q96CW1); test: FP displacement assay, AP2 μ2; conditions: probe FITC-ATG9A 5 nM, 50 mM sodium phosphate pH 7.4, room temperature, at least three technical replicates, read-out: KD values ± SEM
T3 construct: AP2_Mu__Q96CW1_160_435; GST (cleaved yes); made in house; host or cells: Escherichia coli BL21-Gold(DE3)
T3 sequence (Q96CW1 160-435): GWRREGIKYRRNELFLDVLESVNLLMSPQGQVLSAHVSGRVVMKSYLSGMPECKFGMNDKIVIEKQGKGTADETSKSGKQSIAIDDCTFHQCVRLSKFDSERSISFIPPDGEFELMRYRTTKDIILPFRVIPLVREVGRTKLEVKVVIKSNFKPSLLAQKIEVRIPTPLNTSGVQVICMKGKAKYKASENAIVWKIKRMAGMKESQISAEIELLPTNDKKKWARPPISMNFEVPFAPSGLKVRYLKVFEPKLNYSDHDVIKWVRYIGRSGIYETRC
Method: as §1, §2

[5] = molecular target: T4, RANBP2 RanBD4 (Homo sapiens, UniProt P49792); test: FP displacement assay, RANBP2 RanBD4; conditions: probe FITC-C7orf25 5 nM, 50 mM sodium phosphate pH 7.4, room temperature, at least three technical replicates, read-out: KD values ± SEM
T4 construct: GST (cleaved yes); made in house; host or cells: Escherichia coli BL21-Gold(DE3)
T4 sequence (P49792 2924-3050): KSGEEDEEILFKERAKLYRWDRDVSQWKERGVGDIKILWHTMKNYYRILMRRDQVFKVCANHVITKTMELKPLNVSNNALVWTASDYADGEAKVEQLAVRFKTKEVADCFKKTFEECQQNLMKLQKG
Method: as §1, §2

- Kd [4]: 0.93 ± 0.01 µM
Compound: CC(=O)N[C@@H](Cc1ccccc1)C(=O)N1CCC[C@H]1C(=O)N[C@@H](CO)C(=O)N[C@@H](COP(=O)(O)O)C(=O)N[C@@H](Cc1ccc(O)cc1)C(=O)N[C@H](C(=O)N[C@@H](CCCCN)C(=O)N[C@@H](CC(C)C)C(=O)N[C@@H](CC(C)C)C(=O)N[C@@H](CCC(=O)O)C(=O)N[C@@H](CCC(=O)O)C(=O)N[C@@H](CC(N)=O)C(=O)N[C@@H](CCC(=O)O)C(=O)N[C@H](C(=O)N[C@@H](CCC(=O)O)C(=O)N[C@@H](C)C(N)=O)[C@@H](C)O)[C@@H](C)O [BAIAPL1_392–407 pS] (Ac-FPS[pS]YTKLLEENETEA-NH2)

- Kd [4]: 0.67 ± 0.04 µM
Compound: CC[C@H](C)[C@H](NC(=O)[C@@H](NC(=O)[C@@H]1CCCN1C(=O)[C@H](COP(=O)(O)O)NC(=O)[C@H](CO)NC(=O)[C@H](C)NC(=O)[C@@H]1CCCN1C(=O)[C@H](CCSC)NC(=O)[C@@H]1CCCN1C(=O)[C@H](CCC(N)=O)NC(=O)[C@H](Cc1ccc(O)cc1)NC(=O)[C@@H]1CCCN1C(=O)[C@@H](NC(=O)[C@@H](NC(=O)[C@H](CCSC)NC(C)=O)[C@@H](C)O)[C@@H](C)CC)C(C)C)C(=O)N[C@@H](CS)C(N)=O [PCBP1_179–194 pS] (Ac-MTIPYQPMPAS[pS]PVIC-NH2)

- Kd [5]: 733 ± 128 µM
Compound: CC(=O)N[C@@H](Cc1c[nH]cn1)C(=O)N[C@@H](CC(C)C)C(=O)N1CCC[C@H]1C(=O)N[C@@H](CC(C)C)C(=O)N[C@@H](CC(N)=O)C(=O)N[C@@H](COP(=O)(O)O)C(=O)N1CCC[C@H]1C(=O)N[C@@H](CC(C)C)C(=O)N1CCC[C@H]1C(=O)NCC(=O)N[C@@H](CO)C(=O)N[C@@H](CCC(=O)O)C(=O)N[C@@H](CC(C)C)C(=O)N[C@H](C(=O)N[C@@H](CCCCN)C(=O)N[C@@H](Cc1ccc(O)cc1)C(N)=O)[C@@H](C)O [INTS6_145–159 pS] (Ac-HLPLN[pS]PLPGSELTKY-NH2)

- Kd [5]: 334 ± 35 µM
Compound: CC(=O)N[C@@H](Cc1c[nH]cn1)C(=O)N[C@@H](CC(C)C)C(=O)N1CCC[C@H]1C(=O)N[C@@H](CC(C)C)C(=O)N[C@@H](CC(N)=O)C(=O)N[C@@H](CO)C(=O)N1CCC[C@H]1C(=O)N[C@@H](CC(C)C)C(=O)N1CCC[C@H]1C(=O)NCC(=O)N[C@@H](CO)C(=O)N[C@@H](CCC(=O)O)C(=O)N[C@@H](CC(C)C)C(=O)N[C@H](C(=O)N[C@@H](CCCCN)C(=O)N[C@@H](Cc1ccc(O)cc1)C(N)=O)[C@@H](C)O [INTS6_145–159 wt] (Ac-HLPLNSPLPGSELTKY-NH2)

- Kd [4]: 1.29 ± 0.06 µM
Compound: CC(=O)N[C@@H](Cc1ccccc1)C(=O)N1CCC[C@H]1C(=O)N[C@@H](CO)C(=O)N[C@@H](CO)C(=O)N[C@@H](Cc1ccc(O)cc1)C(=O)N[C@H](C(=O)N[C@@H](CCCCN)C(=O)N[C@@H](CC(C)C)C(=O)N[C@@H](CC(C)C)C(=O)N[C@@H](CCC(=O)O)C(=O)N[C@@H](CCC(=O)O)C(=O)N[C@@H](CC(N)=O)C(=O)N[C@@H](CCC(=O)O)C(=O)N[C@H](C(=O)N[C@@H](CCC(=O)O)C(=O)N[C@@H](C)C(N)=O)[C@@H](C)O)[C@@H](C)O [BAIAPL1_392–407 wt] (Ac-FPSSYTKLLEENETEA-NH2)

- Kd [5]: 1500 µM
Compound: CC(=O)N[C@@H](CCCCN)C(=O)N[C@@H](Cc1ccc(O)cc1)C(=O)N[C@@H](CO)C(=O)N[C@@H](CC(=O)O)C(=O)N[C@@H](CC(=O)O)C(=O)N[C@H](C(=O)N1CCC[C@H]1C(=O)N[C@@H](CC(C)C)C(=O)N1CCC[C@H]1C(=O)N[C@H](C(=O)N1CCC[C@H]1C(=O)N[C@@H](CO)C(=O)N[C@@H](Cc1ccc(O)cc1)C(=O)N[C@@H](CCCCN)C(=O)N[C@@H](Cc1ccc(O)cc1)C(=O)N[C@@H](CC(N)=O)C(N)=O)[C@@H](C)O)[C@@H](C)O [DHX38_260–275 wt] (Ac-KYSDDTPLPTPSYKYN-NH2)

The remaining lines, values behind:

Compound: H3COC-DMYALTRGSS(E/pS)LADQRK-NH2 [pS375 TOM1_366–382, phosphorylated TOM1 366-382 peptide]
- binding in FP displacement experiment [1]: weak affinity

Compound: CC[C@H](C)[C@H](NC(=O)[C@H](CC(C)C)NC(=O)[C@H](CC(N)=O)NC(=O)CNC(=O)CNC(=O)[C@H](Cc1ccc(O)cc1)NC(C)=O)C(=O)N[C@H](C(=O)N[C@@H](Cc1ccccc1)C(=O)N[C@@H](CO)C(=O)N1CCC[C@H]1C(=O)N[C@@H](CC(C)C)C(=O)N[C@@H](CCC(N)=O)C(=O)N1CCC[C@H]1C(=O)NCC(=O)N[C@@H](CCC(=O)O)C(=O)N[C@@H](Cc1ccccc1)C(N)=O)[C@@H](C)O [HURP832–846 wt] (Ac-YGGNLITFSPLQPGEF-NH2)
- Kd [2]: 134 ± 16 µM
- Kd [3]: 266 µM

Compound: CC[C@H](C)[C@H](NC(=O)[C@H](CC(C)C)NC(=O)[C@H](CC(N)=O)NC(=O)CNC(=O)CNC(=O)[C@H](Cc1ccc(O)cc1)NC(C)=O)C(=O)N[C@H](C(=O)N[C@@H](Cc1ccccc1)C(=O)N[C@@H](CCC(=O)O)C(=O)N1CCC[C@H]1C(=O)N[C@@H](CC(C)C)C(=O)N[C@@H](CCC(N)=O)C(=O)N1CCC[C@H]1C(=O)NCC(=O)N[C@@H](CCC(=O)O)C(=O)N[C@@H](Cc1ccccc1)C(N)=O)[C@@H](C)O [HURP832–846 E] (Ac-YGGNLITFEPLQPGEF-NH2)
- Kd [2]: 23 ± 2 µM
- Kd [3]: 22 µM

Compound: H3COC-DMYALTRGSS(E/pS)LADQRK-NH2 [S375 TOM1_366–382, wild-type TOM1 366-382 (F368Y) peptide]
- binding in FP displacement experiment [1]: no binding

Compound: H3COC-DMYALTRGSS(E/pS)LADQRK-NH2 [S375E TOM1_366–382, phosphomimetic TOM1 366-382 peptide]
- binding in FP displacement experiment [1]: no binding

Compound: CC[C@H](C)[C@H](NC(=O)[C@@H](NC(=O)[C@@H]1CCCN1C(=O)[C@H](CO)NC(=O)[C@H](CO)NC(=O)[C@H](C)NC(=O)[C@@H]1CCCN1C(=O)[C@H](CCSC)NC(=O)[C@@H]1CCCN1C(=O)[C@H](CCC(N)=O)NC(=O)[C@H](Cc1ccc(O)cc1)NC(=O)[C@@H]1CCCN1C(=O)[C@@H](NC(=O)[C@@H](NC(=O)[C@H](CCSC)NC(C)=O)[C@@H](C)O)[C@@H](C)CC)C(C)C)C(=O)N[C@@H](CS)C(N)=O [PCBP1_179–194 wt] (Ac-MTIPYQPMPASSPVIC-NH2)
- Kd [4]: 3.7 ± 0.1 µM

Compound: CC[C@H](C)[C@H](NC(=O)[C@H](CC(C)C)NC(=O)[C@H](CC(N)=O)NC(=O)CNC(=O)CNC(=O)[C@H](Cc1ccc(O)cc1)NC(C)=O)C(=O)N[C@H](C(=O)N[C@@H](Cc1ccccc1)C(=O)N[C@@H](COP(=O)(O)O)C(=O)N1CCC[C@H]1C(=O)N[C@@H](CC(C)C)C(=O)N[C@@H](CCC(N)=O)C(=O)N1CCC[C@H]1C(=O)NCC(=O)N[C@@H](CCC(=O)O)C(=O)N[C@@H](Cc1ccccc1)C(N)=O)[C@@H](C)O [HURP832–846 pS] (Ac-YGGNLITF[pS]PLQPGEF-NH2)
- Kd [2]: < 3 µM
- IC50 ([2]; Fig 6A, clathrin NTD, FP displacement, two to three technical replicates per protein preparation, 2 independent preparations, read-out: IC50 values of displacement curves, with SEM): 11 ± 4 µM
- Kd [3]: 5 µM and 3 µM
